Experimental data reported in patent US8765755B2, “N-containing heterocyclic compounds” (YM Biosciences Australia Pty Ltd, priority 2007, dated 2014).

Legend:
[1] = system: BafT_J3; assay: Cellular screening, BaF3 TEL:JAK3 cells (Alamar Blue); assay type: cell-based; settings: Mus musculus, 40 hr incubation
Experimental: (§1) For screening purposes, compounds were diluted in 96 well plates at a concentration of 20 μM. Plates were warmed at 37° C. for 30 minutes before the assay was performed.
(§2) The coding region encompassing nucleotides 1-487 of TEL was amplified by PCR using the oligonucleotides 5TEL (5′-GGAGGATCCTGATCTCTCTCGCTGTGAGAC-3′) [SEQ ID NO 14] and 3TEL (5′-AGGC GTCGACTTCTTCTTCATGGTTCTG-3′) [SEQ ID NO 15] and U937 mRNA as a template. A BamHI restriction site was incorporated into the 5TEL primer, and a Sal I restriction site was incorporated into the 3TEL primer. The regions encompassing the kinase domain of JAK2 (nucleotides 2994-3914; JAK2F 5′-ACGC GTCGACGGTGCCTTTGAAGACCGGGAT-3′ [SEQ ID NO 16]; JAK2R 5′-ATAGTTTAGCGGCCGCTCAGAATGAAGGTCATTT-3′) [SEQ ID NO 17] and JAK3 (nucleotides 2520-3469; JAK3F 5′-GAAGTCGACTATGCCTGCCAAGACCCCACGATCTT-3′) [SEQ ID NO 18] were generated by PCR using Taq DNA polymerase (Gibco/BRL) and U937 mRNA as a template. A Sal I restriction site was incorporated into the forward primer of JAK2 and JAK3, a Not I site was incorporated into the JAK2 reverse primer and a Xba I site was added to the reverse primer of JAK3.
The TEL/Jak3 fusion was prepared by ligation of the JAK3 Sal I/Not I cleaved kinase domain PCR product with the BamH I/Sal I restriction digested TEL product, followed by ligation of the ligation product into the BamH I/Not I digested pTRE2, to give the TEL/Jak3 fusion plasmid pTELJAK3.
(§3) The growth factor dependant myelomonocytic cell line BaF3 bearing the pTET-off plasmid (Clontech) was transfected with either pTELJAK2 or pTELJAK3, and the transfected cells were selected for growth-factor independent cell growth. The BaF3 wild-type cells were cultured in DMEM containing 10% FCS, 10% WEHI 3B conditioned medium. The BaF3 TELJAK cells ([…]) were cultured in DMEM 10% Tet-System Approved FBS (without WEHI 3B conditioned medium).
(§4) Cell suspensions were prepared by harvesting cells from culture. (the cells used in this test were in late log phase growth with high viability.) Cells were diluted in the appropriate growth medium, as described above, to 1.1× final concentration (from 50,000 cell/mL to 200,000 cell/mL, depending on cell line).
(§5) Compounds to be tested were added (10 μL, 10× final concentration) to a flat bottomed 96-well plate. The cellular suspension (90 μL per well) was then added, and the plate incubated for 40 hr at 37° C., 5% CO2. Alamar Blue 10 μL per well was added and the plates returned to the incubator for a further 4-6 hours. The plates were then read at 544 nm.

[2] = system: BAF3wt; assay: Cellular screening, BaF3 wild-type cells (Alamar Blue); assay type: cell-based; settings: Mus musculus, 40 hr incubation
Experimental: as §1, §3, §4, §5

[3] = system: CTLL2; assay: Cellular screening, CTLL2 cells (Alamar Blue); assay type: cell-based; settings: Mus musculus, CTLL-2, 40 hr incubation
Experimental: as §1, §4, §5

[4] = target: T1, human JAK2 (Homo sapiens, UniProt O60674); assay: JAK2 kinase enzyme assay (Alphascreen); assay type: biochemical; settings: 80 or 625 um ATP
T1 construct: The kinase domain of human JAK2 was amplified; GST (N); made in house; host or cells: Sf9 (Spodoptera frugiperda) insect cells, baculovirus
Experimental: (§6) For screening purposes, compounds (in 100% DMSO) were warmed at 37 degrees for at least 20 minutes before use. A […] stock was initially made in assay buffer, where the final concentration of DMSO was 0.3%. The stocks were then diluted in 384 well Optiplates (Packard) where the final concentration of the compound was 5 μM.
The kinase domain of human JAK2 was amplified from U937mRNA using the polymerase chain reaction with the following primers: […]
The JAK2 PCR products were cloned into the pDest20 destination vector (Gibco). The JAK2 plasmid was then transformed into competent DH10Bac cells (Gibco), and the recombinant baculovirus was prepared via Sf9 insect cell transfection.
(§7) Baculovirus preparations from each of the JAK family members were infected into one litre of Sf9 (Spodoptera frugiperda) cells (Invitrogen) grown in SF900II serum free medium (Invitrogen) to a cell density of approximately 2×10^6 cells/ml. Cells were infected with virus at a cell culture to virus stock ratio of 20:1. Cells were harvested and lysed 48 hours post infection. The GST-tagged JAK kinase domains were purified by affinity chromatography on a GSH agarose column (Scientifix).
(§8) Kinase assays were performed in 384 well Optiplates (Packard) using an Alphascreen Protein Tyrosine KinaseP100 detection kit The compounds were pre-incubated with affinity purified PTK domain in the presence of phosphotyrosine assay buffer (10 mM HEPES, pH 7.5, 100 mM MgCl2, 25 mM NaCl, 200 mM sodium vanadate and 0.1% Tween 20) for 20 minutes. The compounds were then incubated with substrate in the presence of either 80 or 625 um ATP for 60 or 90 minutes. The substrate used was either susbtrate-1 with the sequence biotin-EGPWLEEEEEAYGWMDF-NH2 [SEQ. ID. NO. 13] (final concentration 111 μM) or susbtrate-2 substrate with the sequence biotin-EQEDEPEGDYFEWLEPE (final concentration 133 μM). Alphascreen phosphotyrosine acceptor beads followed by streptavidin donor beads at a concentration of 1/100 in stop buffer were added to each well under subdued light and incubated for 2-3 hours. The Alphascreen plates were read on a Packard Fusion Alpha instrument.

[5] = system: BafT_J2; assay: Cellular screening, BaF3 TEL:JAK2 cells (Alamar Blue); assay type: cell-based; settings: Mus musculus, 40 hr incubation
Experimental: as §1, §2
A TEL/Jak2 fusion was generated by digestion of the TELPCR product with BamH I/Sal I restriction enzymes, digestion of the JAK2 PCR product with Sal I/Not I restriction enzymes, followed by ligation and subcloning of the ligation product into the mammalian expression Vector pTRE 2 (Clontech), which was prepared by digestion with BamH I-Not I restriction enzymes, to give the TEL/Jak2 fusion plasmid pTELJAK2.
as §3, §4, §5

[6] = target: T2, human JAK3 (Homo sapiens, UniProt P52333); assay: JAK3 kinase enzyme assay (Alphascreen); assay type: biochemical; settings: 80 or 625 um ATP
T2 construct: The kinase domain of human JAK3 was amplified; GST (N); made in house; host or cells: Sf9 (Spodoptera frugiperda) insect cells, baculovirus
Experimental: as §6
The kinase domain of human JAK3 was amplified from U937mRNA using the polymerase chain reaction with the following primers: […]
The JAK3 PCR products were cloned into the pDest20 destination expression vector (Gibco). The JAK3 plasmid was then transformed into competent DH10Bac cells (Gibco), and the recombinant baculovirus was prepared via Sf9 insect cell transfection.
as §7, §8

T2 sequence (P52333 822-1111 limits assumed): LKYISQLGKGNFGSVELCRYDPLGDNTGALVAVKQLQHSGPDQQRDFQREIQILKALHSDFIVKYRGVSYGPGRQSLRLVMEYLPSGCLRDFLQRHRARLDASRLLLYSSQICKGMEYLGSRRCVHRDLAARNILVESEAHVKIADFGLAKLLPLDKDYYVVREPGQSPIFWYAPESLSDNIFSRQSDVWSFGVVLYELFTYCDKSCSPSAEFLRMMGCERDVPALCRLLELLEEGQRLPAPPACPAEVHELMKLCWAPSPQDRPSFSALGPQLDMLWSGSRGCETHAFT
T1 sequence (O60674 849-1124 limits assumed): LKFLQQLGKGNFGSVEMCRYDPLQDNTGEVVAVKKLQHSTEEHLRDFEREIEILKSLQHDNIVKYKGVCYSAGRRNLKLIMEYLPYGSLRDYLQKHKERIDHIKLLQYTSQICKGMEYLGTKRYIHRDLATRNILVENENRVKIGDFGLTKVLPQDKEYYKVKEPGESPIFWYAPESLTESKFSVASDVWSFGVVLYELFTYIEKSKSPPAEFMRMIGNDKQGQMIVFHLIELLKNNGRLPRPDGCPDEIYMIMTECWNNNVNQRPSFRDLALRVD

Row | SMILES | IC50 [1] [nM] | IC50 [2] [nM] | IC50 [3] [nM] | IC50 [4] [nM] | IC50 [5] [nM] | IC50 [6] [nM]
1 | CS(=O)(=O)Nc1cccc(-c2csc3cnc(Nc4ccc(CN5CCOCC5)cc4)nc23)c1 [Compound 83, N-(3-(2-(4-(morpholinomethyl)phenylamino)thieno[3,2-d]pyrimidin-7-yl)phenyl)methanesulfonamide] | < 1000 | < 1000 | < 1000 | < 100 | < 1000 | < 100
2 | CN1CCN(c2ccc(-c3csc4cnc(Nc5ccc(CN6CCOCC6)cc5)nc34)cc2)CC1 [Compound 84, 7-(4-(4-methylpiperazin-1-yl)phenyl)-N-(4-(morpholinomethyl)phenyl)thieno[3,2-d]pyrimidin-2-amine] | < 1000 | < 1000 | < 1000 | < 100 | < 1000 | < 500
3 | COc1cc(-c2csc3cnc(Nc4ccc(CN5CCOCC5)cc4)nc23)ccc1NC(C)=O [Compound 85, N-(2-methoxy-4-(2-(4-(morpholinomethyl)phenylamino)thieno[3,2-d]pyrimidin-7-yl)phenyl)acetamide] | < 1000 | < 1000 | < 1000 | < 100 | < 1000 | < 100
4 | COc1cc(Nc2ncc3scc(-c4cccc(CO)c4)c3n2)cc(OC)c1OC [Compound 87, (3-(2-(3,4,5-trimethoxyphenylamino)thieno[3,2-d]pyrimidin-7-yl)phenyl)methanol] | < 1000 | < 1000 | < 1000 | < 100 | < 1000 | < 100
5 | COc1cc(Nc2ncc3scc(-c4ccc(CO)cc4)c3n2)cc(OC)c1OC [Compound 88, (4-(2-(3,4,5-trimethoxyphenylamino)thieno[3,2-d]pyrimidin-7-yl)phenyl)methanol] | < 1000 | < 1000 | < 1000 | < 100 | < 1000 | < 100
6 | OCc1cccc(-c2csc3cnc(Nc4ccc(N5CCOCC5)cc4)nc23)c1 [Compound 89, (3-(2-(4-morpholinophenylamino)thieno[3,2-d]pyrimidin-7-yl)phenyl)methanol] | < 1000 | < 1000 | < 1000 | < 100 | < 1000 | < 100
7 | OCc1ccc(-c2csc3cnc(Nc4ccc(N5CCOCC5)cc4)nc23)cc1 [Compound 90, (4-(2-(4-morpholinophenylamino)thieno[3,2-d]pyrimidin-7-yl)phenyl)methanol] | < 1000 | < 1000 | < 1000 | < 100 | < 1000 | < 100
8 | CS(=O)(=O)NCc1cccc(-c2csc3cnc(Nc4ccc(OCCN5CCCC5)cc4)nc23)c1 [Compound 91] | < 1000 | < 1000 | < 1000 | < 100 | < 1000 | < 100
9 | CC(C)(C)OC(=O)NCc1cccc(-c2csc3cnc(Nc4ccc(CN5CCOCC5)cc4)nc23)c1 [Compound 92] | < 5000 | < 1000 | < 1000 | < 100 | < 5000 | < 500
10 | c1cc(-c2csc3cnc(Nc4ccc(CN5CCOCC5)cc4)nc23)cc(N2CCNCC2)c1 [Compound 93, N-(4-(morpholinomethyl)phenyl)-7-(3-(piperazin-1-yl)phenyl)thieno[3,2-d]pyrimidin-2-amine] | < 1000 | < 1000 | < 1000 | < 100 | < 1000 | < 100
11 | COc1cc(Nc2ncc3scc(-c4ccc(NCCN5CCOCC5)nc4)c3n2)cc(OC)c1OC [Compound 94, 7-(6-(2-morpholinoethylamino)pyridin-3-yl)-N-(3,4,5-trimethoxyphenyl)thieno[3,2-d]pyrimidin-2-amine] | < 1000 | < 1000 | < 1000 | < 100 | < 1000 | < 500
12 | CCc1ccccc1-c1csc2cnc(Nc3ccc(OCCN4CCCC4)cc3)nc12 [Compound 95, 7-(2-ethylphenyl)-N-(4-(2-(pyrrolidin-1-yl)ethoxy)phenyl)thieno[3,2-d]pyrimidin-2-amine] | < 1000 | < 1000 | < 1000 | < 100 | < 1000 | < 100
13 | CC(C)c1ccccc1-c1csc2cnc(Nc3ccc(OCCN4CCCC4)cc3)nc12 [Compound 96] | < 1000 | < 1000 | < 1000 | < 100 | < 1000 | < 100
14 | NCc1ccc(-c2csc3cnc(Nc4ccc(CN5CCOCC5)cc4)nc23)cc1 [Compound 97, 7-(4-(aminomethyl)phenyl)-N-(4-(morpholinomethyl)phenyl)thieno[3,2-d]pyrimidin-2-amine] | < 1000 | < 1000 | < 1000 | < 100 | < 1000 | < 100
15 | CCN1CCC(Oc2ccc(Nc3ncc4scc(-c5cn[nH]c5)c4n3)cc2)CC1 [Compound 98, N-(4-(1-ethylpiperidin-4-yloxy)phenyl)-7-(1H-pyrazol-4-yl)thieno[3,2-d]pyrimidin-2-amine] | < 1000 | < 1000 | < 1000 | < 100 | < 1000 | < 100
